Experimental data: patent US20100075965A1, “PI3 KINASE INHIBITORS AND METHODS OF THEIR USE” (Novartis AG, priority 2006, published 2010)

Assays:
A2780 cells = assay: Viability assay in A2780 (Cell Titer Glo); assay type: cell-based, human; settings: Homo sapiens; A2780 cells; read-out: A2780 Cell prolif. EC50
Summary of the method: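 EC50 values come from Cell Titer Glo luminescence after 72 hrs of compound exposure at 37° C, run in duplicate. A2780 cells were plated at 1,000 per well in DMEM with 10% FBS and dosed with 3-fold serial dilutions.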

PI3 K Alpha = PI3 K Alpha (Homo sapiens, UniProt P42336); assay: PI3 kinase phosphorylation assays (homogenous solution phase, one step solid phase, ATP depletion/KinaseGlo); assay type: biochemical; settings: read-out: PI3K Alpha IC50
Chain of PI3 K Alpha (P42336 whole entry): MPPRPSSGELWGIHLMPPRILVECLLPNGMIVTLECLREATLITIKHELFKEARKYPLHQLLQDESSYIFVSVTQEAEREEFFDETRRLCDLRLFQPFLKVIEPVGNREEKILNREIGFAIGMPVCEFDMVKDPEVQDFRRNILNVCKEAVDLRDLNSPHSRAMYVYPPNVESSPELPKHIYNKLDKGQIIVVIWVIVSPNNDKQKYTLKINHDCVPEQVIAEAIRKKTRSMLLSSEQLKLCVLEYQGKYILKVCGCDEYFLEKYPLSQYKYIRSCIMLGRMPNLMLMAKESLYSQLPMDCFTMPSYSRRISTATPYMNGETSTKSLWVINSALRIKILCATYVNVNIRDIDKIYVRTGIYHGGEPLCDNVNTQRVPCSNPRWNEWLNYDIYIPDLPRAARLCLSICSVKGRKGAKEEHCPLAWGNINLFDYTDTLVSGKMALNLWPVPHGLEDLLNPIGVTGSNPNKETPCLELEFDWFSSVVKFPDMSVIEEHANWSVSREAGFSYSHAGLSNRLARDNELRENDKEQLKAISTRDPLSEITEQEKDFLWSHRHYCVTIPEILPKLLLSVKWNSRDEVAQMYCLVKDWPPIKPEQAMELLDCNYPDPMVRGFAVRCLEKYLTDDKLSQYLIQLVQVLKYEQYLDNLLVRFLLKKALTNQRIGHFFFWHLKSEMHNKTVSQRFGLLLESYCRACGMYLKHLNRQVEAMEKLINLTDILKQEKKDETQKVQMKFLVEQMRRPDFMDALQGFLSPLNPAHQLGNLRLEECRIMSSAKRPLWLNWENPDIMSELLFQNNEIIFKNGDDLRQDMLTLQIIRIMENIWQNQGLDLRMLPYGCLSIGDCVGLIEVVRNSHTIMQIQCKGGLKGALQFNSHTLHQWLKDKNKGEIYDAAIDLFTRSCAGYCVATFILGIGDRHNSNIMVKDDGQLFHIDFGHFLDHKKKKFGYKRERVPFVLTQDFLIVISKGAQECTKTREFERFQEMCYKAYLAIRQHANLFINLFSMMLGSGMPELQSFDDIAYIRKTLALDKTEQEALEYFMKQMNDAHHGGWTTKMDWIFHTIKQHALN
Chain of PI3 K Alpha (P27986 whole entry partner): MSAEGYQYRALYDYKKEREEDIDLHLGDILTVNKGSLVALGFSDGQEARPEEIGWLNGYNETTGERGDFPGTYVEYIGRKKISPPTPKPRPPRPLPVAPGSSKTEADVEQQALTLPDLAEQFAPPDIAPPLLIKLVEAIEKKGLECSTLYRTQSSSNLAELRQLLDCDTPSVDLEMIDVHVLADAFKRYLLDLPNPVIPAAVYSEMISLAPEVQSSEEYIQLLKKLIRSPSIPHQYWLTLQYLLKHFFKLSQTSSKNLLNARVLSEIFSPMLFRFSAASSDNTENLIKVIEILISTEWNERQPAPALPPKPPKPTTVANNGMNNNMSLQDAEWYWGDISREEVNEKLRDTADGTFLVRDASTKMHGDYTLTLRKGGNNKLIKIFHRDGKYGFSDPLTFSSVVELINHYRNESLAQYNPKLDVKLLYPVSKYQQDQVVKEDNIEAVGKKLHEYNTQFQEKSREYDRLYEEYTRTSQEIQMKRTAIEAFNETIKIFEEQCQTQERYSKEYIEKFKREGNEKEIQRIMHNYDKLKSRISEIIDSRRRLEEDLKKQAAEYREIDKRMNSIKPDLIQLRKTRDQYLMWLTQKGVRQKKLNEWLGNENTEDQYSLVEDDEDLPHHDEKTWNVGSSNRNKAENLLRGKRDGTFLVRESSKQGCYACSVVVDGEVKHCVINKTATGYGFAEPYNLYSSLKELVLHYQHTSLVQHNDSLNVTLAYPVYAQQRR

EC50 (A2780 cells) [µM] | IC50 (PI3 K Alpha) [µM] | Structure (SMILES)
< 10 | < 1 | Nc1ncc(-c2ccc3nc(NC(=O)c4cccc(Cl)c4)cn3c2)cc1C(F)(F)F [Example 225, N-(6-(6-amino-5-(trifluoromethyl)pyridin-3-yl)imidazo[1,2-a]pyridin-2-yl)-3-chlorobenzamide]
< 10 | < 1 | CC(=O)Nc1cn2cc(-c3cnc(N)c(C)n3)ccc2n1 [Example 226, N-(6-(5-amino-6-methylpyrazin-2-yl)imidazo[1,2-a]pyridin-2-yl)acetamide]
< 10 | < 1 | CCN1CC[C@@H](OCC(=O)Nc2cn3cc(-c4cnc(N)c(C(F)(F)F)c4)ccc3n2)C1 [Example 227, (R)-N-(6-(6-amino-5-(trifluoromethyl)pyridin-3-yl)imidazo[1,2-a]pyridin-2-yl)-2-(1-ethylpyrrolidn-3-yloxy)acetamide]
< 10 | < 1 | Nc1ncc(-c2ccc3nc(NC(=O)[C@@H]4CCN4)cn3c2)cc1C(F)(F)F [Example 228, (S)-N-(6-(6-amino-5-(trifluoromethyl)pyridin-3-yl)imidazo[1,2-a]pyridin-2-yl)azetidine-2-carboxamide]
< 10 | < 1 | Nc1ncc(-c2ccc3nc(NC(=O)C4CCN4)cn3c2)nc1OCC(F)(F)F (stereo not drawn) [Example 229, N-(6-(5-amino-6-(2,2,2-trifluoroethoxy)pyrazin-2-yl)imidazo[1,2-a]pyridin-2-yl)azetidine-2-carboxamide]
< 10 | < 1 | CC(C)C(=O)Nc1cn2cc(-c3cnc(N)c(OCC(F)(F)F)n3)ccc2n1 [Example 230, N-(6-(5-amino-6-(2,2,2-trifluoroethoxy)pyrazin-2-yl)imidazo[1,2-a]pyridin-2-yl)isobutyramide]
< 10 | < 1 | CC(C)(C)OC(=O)NCCC(=O)Nc1cn2nc(-c3cnc(N)c(C(F)(F)F)c3)ccc2n1 [Example 231, tert-butyl 3-(6-(6-amino-5-(trifluoromethyl)pyridin-3-yl)imidazo[1,2-b]pyridazin-2-ylamino)-3-oxopropyl-carbamate]
< 10 | < 1 | Nc1ncc(-c2ccc3nc(NC(=O)N4CCC[C@H]4CO)cn3c2)cc1C(F)(F)F [Example 232, (S)-N-(6-(6-amino-5-(trifluoromethyl)pyridin-3-yl)imidazo[1,2-a]pyridin-2-yl)-2-(hydroxymethyl) pyrrolidine-1-carboxamide]
< 10 | < 1 | Nc1ncc(-c2ccc3nc(NC(=O)[C@@H]4CCCCN4Cc4ccccc4)cn3c2)cc1C(F)(F)F [Example 233]
< 10 | < 1 | CC(C)(C)OC(=O)N1CC(C(=O)Nc2cn3cc(-c4cnc(N)c(C(F)(F)F)c4)ccc3n2)C1 [Example 234, tert-butyl 3-(6-(6-amino-5-(trifluoromethyl)pyridin-3-yl)imidazo[1,2-a]pyridin-2-ylcarbamoyl) azetidine-1-carboxylate]
< 10 | < 1 | CCC(=O)Nc1cn2cc(-c3cnc(N)c(C(F)(F)F)c3)ccc2n1 [Example 236, N-(6-(6-amino-5-(trifluoromethyl)pyridin-3-yl)imidazo[1,2-a]pyridin-2-yl)propionamide]
< 10 | < 1 | CN(CC(=O)Nc1cn2nc(-c3cnc(N)c(C(F)(F)F)c3)ccc2n1)C(=O)OC(C)(C)C [Example 237, tert-butyl 2-(6-(6-amino-5-(trifluoromethyl)pyridin-3-yl)imidazo[1,2-b]pyridazin-2-ylamino)-2-oxoethyl(methyl) carbamate]

Further lines, the compound ahead of its results:

Structure (SMILES) | EC50 (A2780 cells) [µM] | IC50 (PI3 K Alpha) [µM]
Nc1ncc(-c2ccc3nc(NC(=O)c4cccc(F)c4)cn3c2)cc1C(F)(F)F [Example 192, N-(6-(6-amino-5-(trifluoromethyl)pyridin-3-yl)imidazo[1,2-a]pyridin-2-yl)-3-fluorobenzamide] | < 10 | < 1
CC(C)(C)OC(=O)N1CC(C(=O)Nc2cn3nc(-c4cnc(N)c(C(F)(F)F)c4)ccc3n2)C1 [Example 197, tert-butyl 3-(6-(6-amino-5-(trifluoromethyl)pyridin-3-yl)imidazo[1,2-b]pyridazin-2-ylcarbamoyl) azetidine-1-carboxylate] | < 10 | < 1
Nc1ncc(-c2ccc3nc(NC(=O)CN4CCCCC4)cn3c2)cc1C(F)(F)F [Example 198, N-(6-(6-amino-5-(trifluoromethyl)pyridin-3-yl)imidazo[1,2-a]pyridin-2-yl)-2-(piperidin-1-yl)acetamide] | < 10 | < 1
CCOCC(=O)Nc1cn2cc(-c3cnc(N)c(C(F)(F)F)c3)ccc2n1 [Example 199, N-(6-(6-amino-5-(trifluoromethyl)pyridin-3-yl)imidazo[1,2-a]pyridin-2-yl)-2-ethoxyacetamide] | < 10 | < 1
Nc1ncc(-c2ccc3nc(NC(=O)COC4CCNCC4)cn3c2)cc1C(F)(F)F [Example 200, N-(6-(6-amino-5-(trifluoromethyl)pyridin-3-yl)imidazo[1,2-a]pyridin-2-yl)-2-(piperidin-4-yloxy)acetamide] | < 10 | < 1
CC(=O)Nc1cn2cc(-c3cnc(N)c(N4CCOCC4)n3)ccc2n1 [Example 201, N-(6-(5-amino-6-morpholino-pyrazin-2-yl)imidazo[1,2-a]pyridin-2-yl)acetamide] | < 10 | < 1
COCCOc1nc(-c2ccc3nc(NC(=O)CN4CCCCC4)cn3c2)cnc1N [Example 202, N-(6-(5-amino-6-(2-methoxyethoxy)pyrazin-2-yl)imidazo[1,2-a]pyridin-2-yl)-2-(piperidin-1-yl)acetamide] | < 10 | < 1
CC(C)(C)OC(=O)NCC(=O)Nc1cn2cc(-c3cnc(N)c(C(F)(F)F)c3)ccc2n1 [Example 203, tert-butyl 2-(6-(6-amino-5-(trifluoromethyl)pyridin-3-yl)imidazo[1,2-a]pyridin-2-ylamino)-2-oxoethylcarbamate] | < 10 | < 1
CCN/N=C/c1cc(-c2ccc3nc(NC(C)=O)cn3c2)cnc1N [Example 207, (E)-N-(6-(6-amino-5-((2-ethylhydrazono)methyl)pyridin-3-yl)imidazo[1,2-a]pyridin-2-yl)acetamide] | < 10 | < 1
CC(=O)Nc1cn2cc(-c3cnc(N)c(OCC4CCN(C)CC4)n3)ccc2n1 [Example 209, N-(6-(5-amino-6-((1-methylpiperidin-4-yl)methoxy)pyrazin-2-yl)imidazo[1,2-a]pyridin-2-yl)acetamide] | < 10 | < 1
CC(=O)Nc1cn2cc(-c3ccc(N)nc3F)ccc2n1 [Example 210, N-(6-(6-amino-2-fluoropyridin-3-yl)imidazo[1,2-a]pyridin-2-yl)acetamide] | < 10 | < 1
CC(=O)Nc1cn2nc(-c3cnc(N)c(C(=O)NCCN4CCCC4)c3)ccc2n1 [Example 211, 5-(2-acetamido-imidazo[1,2-b]pyridazin-6-yl)-2-amino-N-(2-(pyrrolidin-1-yl)ethyl) nicotinamide] | < 10 | < 1
COc1ccccc1-c1cc(-c2ccc3nc(NC(C)=O)cn3n2)cnc1N [Example 212, N-(6-(6-amino-5-(2-methoxyphenyl)pyridin-3-yl)imidazo[1,2-b]pyridazin-2-yl)acetamide] | < 10 | < 1
Nc1ncc(-c2ccc3nc(NC(=O)CO[C@@H]4CCNC4)cn3c2)cc1C(F)(F)F [Example 214, (R)-N-(6-(6-amino-5-(trifluoromethyl)pyridin-3-yl)imidazo[1,2-a]pyridin-2-yl)-2-(pyrrolidin-3-yloxy)acetamide] | < 10 | < 1
Nc1ncc(-c2ccc3nc(NC(=O)[C@H]4CCCCN4)cn3c2)cc1C(F)(F)F [Example 216, (R)-N-(6-(6-amino-5-(trifluoromethyl)pyridin-3-yl)imidazo[1,2-a]pyridin-2-yl)piperidine-2-carboxamide] | < 10 | < 1
Nc1ncc(-c2ccc3nc(NC(=O)COCc4ccccc4)cn3n2)cc1C(F)(F)F [Example 217, N-(6-(6-amino-5-(trifluoromethyl)pyridin-3-yl)imidazo[1,2-b]pyridazin-2-yl)-2-(benzyloxy) acetamide] | < 10 | < 1
NC(=O)Nc1cn2cc(-c3cnc(N)c(C(F)(F)F)c3)ccc2n1 [Example 219, 1-(6-(6-amino-5-(trifluoromethyl)pyridin-3-yl)imidazo[1,2-a]pyridin-2-yl)urea] | < 10 | < 1
CCN1CCC(OCC(=O)Nc2cn3cc(-c4cnc(N)c(C(F)(F)F)c4)ccc3n2)CC1 [Example 221, N-(6-(6-amino-5-(trifluoromethyl)yl)imidazo[1,2-a]pyridin-2-yl)-2-(1-ethylpiperidin-4-yloxy)acetamide] | < 10 | < 1
CC(=O)Nc1cn2cc(-c3cnc(N)c(Oc4ccc(N5CCN(C(C)=O)CC5)cc4)n3)ccc2n1 [Example 222, N-(6-(6-(4-(4-acetylpiperazin-1-yl)phenoxy)-5-aminopyrazin-2-yl)imidazo[1,2-a]pyridin-2-yl)acetamide] | < 10 | < 1
C[C@@H](N)C(=O)Nc1cn2nc(-c3cnc(N)c(C(F)(F)F)c3)ccc2n1 [Example 223, (R)-2-amino-N-(6-(6-amino-5-(trifluoromethyl)pyridin-3-yl)imidazo[1,2-b]pyridazin-2-yl)propanamide] | < 10 | < 1
Nc1ncc(-c2ccc3nc(NC(=O)N4CC[C@H](O)C4)cn3c2)cc1C(F)(F)F [Example 224, (S)-N-(6-(6-amino-5-(trifluoromethyl)pyridin-3-yl)imidazo[1,2-a]pyridin-2-yl)-3-hydroxy-pyrrolidine-1-carboxamide] | < 10 | < 1
